Where “and” joins values, the source holds several entries; their conditions need not be identical. Equal values may be shown once.
Tests used:
blood lymphocytes [1] = assay: Effect of two-week treatment on blood lymphocytes in rats; assay type: in vivo, rats (Sprague-Dawley); settings: 20 mg/kg/12 h intraperitoneally, 14 days
Procedure: In this experiment, healthy 200-grams rats (Sprague-Dawley) were treated with picropodophyllin by intraperitoneal injections twice daily, the dose being 20 mg/kg/12 h, using DMSO/sunflower oil, 9:1, as vehicle. The control group was treated with the vehicle only (totally per day: 200 μL DMSO). Each group included 5 rats. After treatment for 14 days, the rats were sacrificed and blood samples were taken. The number of blood cells in the samples was counted using an Advia 120 Hematology system from Bayer AB (Diagnostica).

human T lymphocytes = assay: 3H-thymidine incorporation, Concanavalin A stimulated proliferation of lymphocytes from patients; assay type: cell-based; settings: for 3H-thymidine in cyclolignan-treated lymphocytes (% of 3H-thymidine in control lymphocytes): 2.5 microM, Con A three days, 18 h incorporation; for Proliferation of peripheral blood T lymphocytes, in words: lymphocytes of patients with autoimmune diseases
Procedure: The effects of picropodophyllin and deoxypicropodophyllin on human T lymphocyte function, i.e. the proliferation capacity of human T lymphocytes in response to an antigen/mitogen, were measured using a time course tritium labelled thymidine incorporation assay. Lymphocytes from peripheral blood of patients were purified by ficoll-hypaque (Pharmacia, Amersham) and were distributed in 96 well plates at 100,000 cells per well, and all samples were in triplicates. Cells were kept in RPMI 1640 medium (Life technologies) supplemented with 10% human serum (Sigma), 100 units/mL penicillin (Sigma), 100 microg/mL streptomycin (Sigma) and 2 mM L-glutamine (Sigma). Proliferation of lymphocytes was stimulated with the T lymphocyte mitogen Concanavalin A (Con A) 10 microg/mL (Sigma). After three days incubation with Con A, with and without the cyclolignans, 1 microCi ^3H-thymidine (Amersham) was added to each well, and after another eighteen hours cells were harvested and washed, and the amount of ^3H-thymidine incorporated into newly synthesized DNA determined by scintillation counting.

[2] = tested on: lymphocytes from human peripheral blood; assay: Apoptosis of human blood lymphocytes (PI/Annexin V, FACS); assay type: cell-based; settings: 30 min
Procedure: (§1) The effects of picropodophyllin and deoxypicropodophyllin on the activation of subgroups of lymphocytes in human blood were determined by flow cytometry (FACS). Lymphocytes from human peripheral blood were purified by ficoll-hypaque (Pharmacia, Amersham) and then distributed in FACS tubes at 500,000 cells in 0.5 mL per tube. Cells were kept in RPMI medium (Life technologies) supplemented with 10% bovine serum […] (BGS; Sigma), 1% penicillin-streptomycin (Sigma) and 1% glutamine (Sigma). The cells were incubated for 30 min at room temperature in the absence (control lymphocytes) or presence of picropodophyllin and deoxypicropodophyllin at 0.1 and 2.5 microM concentrations. After washing, the cells were stained 15 min for the surface molecules CD4, CD8 and CD69. CD4 and CD8 are expressed by two subsets of T lymphocytes, i.e. helper T cells and cytotoxic T cells, respectively, and CD69 is a lymphocyte activation marker. The staining was performed with the following fluorophore conjugated antibodies: anti-CD4PB; anti-CD8APC; anti-CD69APCCy7 (Beckton Dickinson). The cells were then washed with PBS containing 2% FCS and 0.05% NaN3 (FACS buffer) and then stained with […] (PI)/FITC Annexin V (Beckton Dickinson) to determine apoptosis of cells, and after incubation for another 15 min and washing, the cells were analysed by flow cytometry (FACSCalibur; Beckton Dickinson). Data were evaluated using the Cellquest computer software (Beckton Dickinson).

cytotoxic T lymphocytes = assay: Activation of cytotoxic T lymphocytes in human blood (FACS, CD8/CD69); assay type: cell-based; settings: for CD8, percent cytotoxic T cells of total cells (events) / CD8/CD69, percent activated cytotoxic T cells of total cytotoxic T cells: 30 min; for Effect on number of activated cytotoxic T lymphocytes (CD8/CD69), in words: 0.1 and 2.5 microM
Procedure: as §1

blood lymphocytes [3] = assay: Effect of seven-day treatment on blood lymphocytes in mice; assay type: in vivo; settings: 20 mg/kg/12 h intraperitoneally, 7 days
Procedure: In this experiment, healthy 20-gram mice were treated with picropodophyllin by intraperitoneal injections twice daily, the dose being 20 mg/kg/12 h using DMSO/sunflower oil, 9:1, as vehicle. The control group was treated with the vehicle only (totally per day: 20 μL DMSO/oil). Each group included 3 mice. After treatment for 7 days, the mice were sacrificed and blood samples were taken. The number of blood cells in the samples was counted using an Advia 120 Hematology system from Bayer AB (Diagnostica).

helper T lymphocytes = assay: Activation of helper T lymphocytes in human blood (FACS, CD4/CD69); assay type: cell-based; settings: 30 min
Procedure: as §1

mice = assay: Systemic toxicity of trans and cis isomers of cyclolignans in mice; settings: nude mice; for Survival (in words) / Toxic signs (in words): 28 mg/kg/d intraperitoneally daily for 5 days; for No. of surviving mice/No. of treated mice: 28 mg/kg/d intraperitoneally daily
Procedure: The experiment was carried out to determine the significance of the stereochemistry of cyclolignans for their general toxicity by investigating systemic toxic effects of trans and cis isomers of cyclolignans in mice. Five-week old pathogen-free nude mice (nu/nu) were used and housed within plastic isolators in a sterile facility. Experimental treatments with podophyllotoxin, deoxypodophyllotoxin, picropodophyllin and deoxypicropodophyllin were performed by injecting each compound dissolved in 10 microL of a mixture of DMSO and saline intraperitoneally daily for 5 days. The dose injected once daily was 28 mg/kg/d and 6 mice were used for each drug. Control mice were treated with the vehicle only.
The mice were checked daily for signs of discomfort, diseases and weight loss.

[4] = MS (multiple sclerosis) patients
[5] = RA (rheumatoid arthritis) patients
[6] = UC (ulcerative colitis) patients

Compound | 3H-thymidine in cyclolignan-treated lymphocytes (% of 3H-thymidine in control lymphocytes) (human T lymphocytes; CD (Crohn's disease) patients) | 3H-thymidine in cyclolignan-treated lymphocytes (% of 3H-thymidine in control lymphocytes) (human T lymphocytes; [4]) | 3H-thymidine in cyclolignan-treated lymphocytes (% of 3H-thymidine in control lymphocytes) (human T lymphocytes; [5]) | 3H-thymidine in cyclolignan-treated lymphocytes (% of 3H-thymidine in control lymphocytes) (human T lymphocytes; [6]) | Proliferation of peripheral blood T lymphocytes, in words (human T lymphocytes) | ANNEXIN V, percent of total cells ([2]; 0.1 μM) | PI ANNEXIN V, percent of total cells ([2]; 0.1 μM) | PI, percent of total cells ([2]; 0.1 μM) | ANNEXIN V, percent of total cells ([2]; 2.5 μM) | PI ANNEXIN V, percent of total cells ([2]; 2.5 μM) | PI, percent of total cells ([2]; 2.5 μM) | CD8, percent cytotoxic T cells of total cells (events) (cytotoxic T lymphocytes; 0.1 μM) | CD8/CD69, percent activated cytotoxic T cells of total cytotoxic T cells (cytotoxic T lymphocytes; 0.1 μM) | Survival (in words) (mice) | Toxic signs (in words) (mice) | No. of surviving mice/No. of treated mice (mice; Day 1) | No. of surviving mice/No. of treated mice (mice; Day 2) | No. of surviving mice/No. of treated mice (mice; Day 3) | No. of surviving mice/No. of treated mice (mice; Day 4) | No. of surviving mice/No. of treated mice (mice; Day 5) | other results
COc1cc([C@@H]2c3cc4c(cc3[C@H](O)[C@H]3COC(=O)[C@@H]23)OCO4)cc(OC)c1OC [Picropodophyllin] | 8% | 10% | 15% | 13% | suppressed | 0.9% | 9.4% | 0% | 0.9% | 10.5% | 0% | 35.0% | 3.2% | survived the whole 5-day period | did not exhibit any obvious toxic signs | 6/6 | 6/6 | 6/6 | 6/6 | 6/6 | Lymphocytes in blood (blood lymphocytes [1]; individual rats, listed as PPP, 20 mg/kg): 3.16e+09 L⁻¹ and 4.5e+08 L⁻¹ and 4.2e+09 L⁻¹ and 2.8e+09 L⁻¹ and 3.86e+09 L⁻¹; Decrease of blood lymphocytes (blood lymphocytes [1]; rats, versus controls): more than 50%; 3H-thymidine in cyclolignan-treated lymphocytes (% of 3H-thymidine in control lymphocytes) (human T lymphocytes; AD patients): 7%; CD8, percent cytotoxic T cells of total cells (events) (cytotoxic T lymphocytes; 2.5 μM): 34.8%; CD8/CD69, percent activated cytotoxic T cells of total cytotoxic T cells (cytotoxic T lymphocytes; 2.5 μM): 1.8%; Effect on number of activated cytotoxic T lymphocytes (CD8/CD69), in words (cytotoxic T lymphocytes): dose-dependently decreased; Lymphocytes in blood (blood lymphocytes [3]; individual mice, listed as PPP, 20 mg/kg): 3e+07 L⁻¹ and 1e+07 L⁻¹ and 0 L⁻¹; Effect on number of blood lymphocytes (in words) (blood lymphocytes [3]; mice): reduced the number of blood lymphocytes; CD4, percent helper T cells of total cells (events) (helper T lymphocytes; 0.1 μM): 36.7%; CD4/CD69, percent activated helper T cells of total helper T cells (helper T lymphocytes; 0.1 μM): 11.0%; CD4, percent helper T cells of total cells (events) (helper T lymphocytes; 2.5 μM): 36.3%; CD4/CD69, percent activated helper T cells of total helper T cells (helper T lymphocytes; 2.5 μM): 9.7%
COc1cc([C@@H]2c3cc4c(cc3[C@H](O)[C@H]3COC(=O)[C@H]23)OCO4)cc(OC)c1OC [Podophyllotoxin, reference compound] |  |  |  |  |  |  |  |  |  |  |  |  |  | on the second day all of the animals were dead | became quickly sick | 2/6 | 0/6 | 0/6 | 0/6 | 0/6 | 
COc1cc([C@@H]2c3cc4c(cc3C[C@H]3COC(=O)[C@@H]32)OCO4)cc(OC)c1OC [Deoxypodophyllotoxin, reference compound] |  |  |  |  |  |  |  |  |  |  |  |  |  | after 3 days they were all dead | serious toxic signs on the second day | 6/6 | 4/6 | 0/6 | 0/6 | 0/6 | 
COc1cc([C@@H]2c3cc4c(cc3C[C@H]3COC(=O)[C@H]32)OCO4)cc(OC)c1OC [Deoxypicropodophyllin] | 8% | 8% | 7% | 10% | suppressed | 1.3% | 9.2% | 0% | 1.5% | 9.3% | 0% | 34.7% | 4.1% | survived the whole 5-day period | did not exhibit any obvious toxic signs | 6/6 | 6/6 | 6/6 | 6/6 | 6/6 | 3H-thymidine in cyclolignan-treated lymphocytes (% of 3H-thymidine in control lymphocytes) (human T lymphocytes; AD (Alzheimer's disease) patients): 9%; CD8, percent cytotoxic T cells of total cells (events) (cytotoxic T lymphocytes; 2.5 μM): 32.8%; CD8/CD69, percent activated cytotoxic T cells of total cytotoxic T cells (cytotoxic T lymphocytes; 2.5 μM): 0.9%; Effect on number of activated cytotoxic T lymphocytes (CD8/CD69), in words (cytotoxic T lymphocytes): dose-dependently decreased; CD4, percent helper T cells of total cells (events) (helper T lymphocytes; 0.1 μM): 36.7%; CD4/CD69, percent activated helper T cells of total helper T cells (helper T lymphocytes; 0.1 μM): 13.2%; CD4, percent helper T cells of total cells (events) (helper T lymphocytes; 2.5 μM): 37.1%; CD4/CD69, percent activated helper T cells of total helper T cells (helper T lymphocytes; 2.5 μM): 7.5%

Reference: patent publication US20110178050A1, “USE OF CYCLOLIGNANS FOR THE TREATMENT OF A HYPERACTIVE IMMUNE SYSTEM” (Axelar AB, priority 2008, published 2011)
